The values that follow are results of earlier work, collected in patent US7550155B2, “Aqueous pharmaceutical compositions of 2,6-diisopropylphenol (propofol) and their uses” (Transform Pharmaceuticals Inc., priority 2002, dated 2009).

The conditions of this data set: 10% aqueous solution of P188.

With `CC(C)c1cccc(C(C)C)c1O` [propofol, 2,6-diisopropylphenol], the “Propofol held in aqueous P188 solution” value is reported as 0.8%.
